Experimental data published in EPA's ToxRefDB 2.

Legend:
rat [1] = conditions: Sub-acute repeat dose toxicity; sprague dawley; Oral; Gavage/Intubation; dose end: 1 week; group: systemic; systemic / in life observation / food consumption / food consumption + systemic / in life observation / water consumption / water …
rat [2] = conditions: Multigenerational reproductive toxicity study, sprague dawley, Oral, Gavage/Intubation, dose end: 1 generation
rabbit = conditions: Prenatal developmental toxicity study, new zealand white, Oral, Gavage/Intubation, dose end: 28 GD
rat [3] = conditions: Subchronic dermal toxicity, sprague dawley, Topical, dose end: 90 day, group: systemic, systemic / in life observation / clinical signs / desquamation + systemic / in life observation / clinical signs / erythema + systemic / in …
rat [4] = conditions: Subchronic oral toxicity in rodents, sprague dawley, Gavage/Intubation, dose end: 90 day, group: systemic
rat [5] = conditions: Subchronic oral toxicity in rodents, other, Feed, dose end: 13 week, group: systemic
rat [6] = conditions: Prenatal developmental toxicity study, other, Oral, Gavage/Intubation, dose end: 15 GD
mouse [7] = conditions: Combined chronic toxicity/carcinogenicity, b6c3f1, Oral, Feed, dose end: 106 week, group: systemic
rat [8] = conditions: Combined chronic toxicity/carcinogenicity; fischer; Oral; Feed; dose end: 105 week; group: systemic; systemic / in life observation / body weight / body weight + systemic / pathology microscopic / kidney / nephropathy + systemic / pathology …
mouse [9] = conditions: Carcinogenicity; b6c3f1; Oral; Feed; dose end: 103 week; group: systemic; systemic / in life observation / body weight / body weight
mouse [10] = conditions: Carcinogenicity, b6c3f1, Oral, Feed, dose end: 2 year, group: systemic
dog = conditions: Subchronic oral toxicity in nonrodent, beagle, Capsule, dose end: 26 week, group: systemic
mouse [11] = conditions: Subchronic oral toxicity in rodents, b6c3f1, Feed, dose end: 13 week, group: systemic
rat [12] = conditions: Combined chronic toxicity/carcinogenicity, fischer, Oral, Feed, dose end: 2 year, group: systemic
rat [13] = conditions: Multigenerational reproductive toxicity study, sprague dawley, Oral, Feed, dose end: 2 generation
rat [14] = conditions: Carcinogenicity; fischer; Oral; Feed; dose end: 103 week; group: systemic; systemic / pathology microscopic / pituitary gland / hyperplasia
rat [15] = conditions: Subchronic oral toxicity in rodents, fischer, Feed, dose end: 13 week, group: systemic
rat [16] = conditions: Chronic toxicity, fischer, Oral, Feed, dose end: 103 week, group: systemic
rat [17] = conditions: Prenatal developmental toxicity study, other, Oral, Gavage/Intubation, dose end: 19 GD
primate = conditions: Sub-acute repeat dose toxicity, macaque, Oral, Gavage/Intubation, dose end: 28 day, group: systemic
mouse [18] = conditions: Subchronic oral toxicity in rodents, cd1, Gavage/Intubation, dose end: 3 month, group: systemic, systemic / pathology microscopic / gallbladder / degeneration + systemic / pathology microscopic / gallbladder / hyperplasia + systemic / …
rat [19] = conditions: Sub-acute repeat dose toxicity, sprague dawley, Oral, Gavage/Intubation, dose end: 1 month, group: systemic
[20] = group: parental, systemic / in life observation / clinical signs / fur (altered appearance) + systemic / in life observation / clinical signs / hunched …
[21] = group: reproductive, reproductive / offspring survival early / dead fetuses / dead fetuses
[22] = group: developmental, developmental / developmental malformation / bone / malpositioned + developmental / developmental malformation / bone / supernumerary + …
[23] = group: maternal, systemic / in life observation / body weight / body weight gain + systemic / in life observation / food consumption / food consumption
[24] = group: maternal, systemic / in life observation / body weight / body weight gain + systemic / in life observation / food consumption / food consumption + …
[25] = systemic / pathology microscopic / stomach / hyperplasia + systemic / in life observation / clinical signs / abnormal respiratory sounds + …
[26] = systemic / pathology microscopic / stomach / hyperplasia + systemic / pathology microscopic / stomach / edema + systemic / pathology …
[27] = systemic / in life observation / body weight / body weight + systemic / in life observation / food consumption / food efficiency + systemic…
[28] = group: developmental, developmental / developmental malformation / bone / fused + developmental / developmental malformation / bone / incomplete ossification
[29] = systemic / in life observation / body weight / body weight
[30] = systemic / in life observation / body weight / body weight + systemic / pathology microscopic / blood / lymphoma nos + systemic / pathology …
[31] = systemic / in life observation / body weight / body weight + systemic / in life observation / body weight / body weight gain
[32] = systemic / in life observation / body weight / body weight + systemic / in life observation / body weight / body weight gain + systemic / in…
[33] = systemic / clinical chemistry / cholesterol / cholesterol + systemic / clinical chemistry / glucose / glucose + systemic / hematology / …
[34] = systemic / in life observation / body weight / body weight + systemic / in life observation / mortality / mortality + systemic / organ …
[35] = systemic / organ weight / liver / relative to body weight + systemic / organ weight / liver / absolute
[36] = systemic / in life observation / body weight / body weight + systemic / in life observation / food consumption / food consumption + systemic…
[37] = group: offspring, systemic / in life observation / body weight / offspring (pup) weight + systemic / in life observation / body weight / offspring (pup) …
[38] = group: parental, systemic / in life observation / body weight / body weight + systemic / in life observation / body weight / body weight gain
[39] = group: reproductive, reproductive / offspring survival early / litter size / litter size + reproductive / offspring survival early / birth index / live birth …
[40] = systemic / in life observation / body weight / body weight + systemic / in life observation / clinical signs / fur (altered appearance) + …
[41] = systemic / pathology microscopic / skin / subcutaneous mass
[42] = group: developmental, systemic / in life observation / body weight / fetal weight
[43] = group: maternal, systemic / in life observation / clinical signs / abnormal movements + systemic / in life observation / clinical signs / salivation
[44] = systemic / clinical chemistry / albumin / albumin + systemic / clinical chemistry / calcium / calcium + systemic / in life observation / …
[45] = systemic / clinical chemistry / alanine aminotransferase (alt/sgpt) / alanine aminotransferase (alt/sgpt) + systemic / clinical chemistry / …

## O=S1CCON=C1c1cc2ccccc2s1 (centres undefined) [Bethoxazin]
Rat [1]
  LEL: 50 mg/kg/day
  LOAEL: 50 mg/kg/day
  NEL: < 50 mg/kg/day
  NOAEL: < 50 mg/kg/day
Rat [2]; [20]
  LEL: 10 mg/kg/day
  LOAEL: 70 mg/kg/day
  NEL: < 10 mg/kg/day
  NOAEL: 30 mg/kg/day
Rat [2]; [21]
  LEL: 70 mg/kg/day
  LOAEL: > 70 mg/kg/day
  NEL: 30 mg/kg/day
  NOAEL: ≥ 70 mg/kg/day
rabbit; [22]
  LOAEL: 30 mg/kg/day
  NEL: 3 mg/kg/day
rabbit; group: developmental, developmental / developmental malformation / bone / supernumerary
  LEL: 10 mg/kg/day
rabbit; [23]
  LOAEL: 30 mg/kg/day
rabbit; [24]
  LEL: 30 mg/kg/day
Rat [3]
  LEL: 0.1 mg/kg/day
  LOAEL: 0.1 mg/kg/day
  NEL: < 0.1 mg/kg/day
  NOAEL: < 0.1 mg/kg/day
Rat [4]; [25]
  NEL: 1.25 mg/kg/day
  NOAEL: 1.25 mg/kg/day
Rat [4]; [26]
  LEL: 5 mg/kg/day
  LOAEL: 5 mg/kg/day

## CC(C)Nc1nc(N)nc(Cl)n1 [Deethylatrazine]
Rat [5]; systemic / in life observation / body weight / body weight + systemic / in life observation / food consumption / food efficiency
  LOAEL: 35.1 mg/kg/day
Rat [5]; [27]
  LEL: 35.1 mg/kg/day
  NEL: 3.2 mg/kg/day
  NOAEL: 3.2 mg/kg/day
Rat [6]; [28]
  LEL: 100 mg/kg/day
  LOAEL: 100 mg/kg/day
  NEL: 25 mg/kg/day
  NOAEL: 25 mg/kg/day
Rat [6]; [23]
  LEL: 25 mg/kg/day
  LOAEL: 25 mg/kg/day
Rat [6]; [24]
  NEL: 5 mg/kg/day
  NOAEL: 5 mg/kg/day

## c1ccc2n[nH]nc2c1 [1,2,3-Benzotriazole]
Mouse [7]; [29]
  LOAEL: 1760 mg/kg/day
  NOAEL: < 1760 mg/kg/day
Mouse [7]; [30]
  LEL: 1760 mg/kg/day
  NEL: < 1760 mg/kg/day
Rat [8]
  LEL: 335 mg/kg/day
  LOAEL: 335 mg/kg/day
  NEL: < 335 mg/kg/day
  NOAEL: < 335 mg/kg/day

## C=C(C)[C@H]1Cc2c(ccc3c2O[C@@H]2COc4cc(OC)c(OC)cc4[C@@H]2C3=O)O1 [Rotenone]
Mouse [9]
  LEL: 111 mg/kg/day
  LOAEL: > 242 mg/kg/day
  NEL: < 111 mg/kg/day
  NOAEL: ≥ 242 mg/kg/day
Mouse [10]; [31]
  LOAEL: 111 mg/kg/day
  NOAEL: < 111 mg/kg/day
Mouse [10]; [32]
  LEL: 111 mg/kg/day
  NEL: < 111 mg/kg/day
dog; [33]
  LOAEL: 10 mg/kg/day
  NEL: 0.4 mg/kg/day
  NOAEL: 2 mg/kg/day
dog; [32]
  LEL: 2 mg/kg/day
Mouse [11]; [34]
  LOAEL: > 7500 mg/kg/day
  NOAEL: ≥ 7500 mg/kg/day
Mouse [11]; [35]
  LEL: 90 mg/kg/day
  NEL: < 90 mg/kg/day
Rat [12]; systemic / in life observation / body weight / body weight + systemic / in life observation / food consumption / food consumption
  LOAEL: 1.88 mg/kg/day
Rat [12]; [36]
  LEL: 1.88 mg/kg/day
  NEL: 0.375 mg/kg/day
  NOAEL: 0.375 mg/kg/day
Rat [13]; [37]
  LEL: 3.1 mg/kg/day
  LOAEL: 3.1 mg/kg/day
  NEL: 0.6 mg/kg/day
  NOAEL: 0.6 mg/kg/day
Rat [13]; [38]
  LEL: 3 mg/kg/day
  LOAEL: 3 mg/kg/day
  NEL: 0.6 mg/kg/day
  NOAEL: 0.6 mg/kg/day
Rat [13]; [39]
  LEL: 7 mg/kg/day
  LOAEL: > 7 mg/kg/day
  NEL: 3.1 mg/kg/day
  NOAEL: ≥ 7 mg/kg/day
Rat [14]
  LEL: 3.4 mg/kg/day
  LOAEL: > 3.4 mg/kg/day
  NEL: 1.7 mg/kg/day
  NOAEL: ≥ 3.4 mg/kg/day
Rat [15]; [40]
  LOAEL: > 60 mg/kg/day
  NEL: 3.75 mg/kg/day
  NOAEL: ≥ 60 mg/kg/day
Rat [15]; systemic / in life observation / body weight / body weight + systemic / pathology microscopic / bone marrow / atrophy + systemic / pathology…
  LEL: 7.5 mg/kg/day
Rat [16]; systemic / pathology microscopic / pituitary gland / hyperplasia + systemic / pathology microscopic / parathyroid gland / hyperplasia
  LOAEL: 3.4 mg/kg/day
Rat [16]; systemic / pathology microscopic / pituitary gland / hyperplasia + systemic / pathology microscopic / parathyroid gland / hyperplasia + …
  NOAEL: 1.7 mg/kg/day
Rat [16]; [41]
  LEL: 1.8 mg/kg/day
  NEL: < 1.8 mg/kg/day
Rat [17]; [42]
  LEL: 6 mg/kg/day
  LOAEL: 6 mg/kg/day
  NEL: 3 mg/kg/day
  NOAEL: 3 mg/kg/day
Rat [17]; [43]
  LEL: 0.75 mg/kg/day
  LOAEL: 0.75 mg/kg/day
  NEL: < 0.75 mg/kg/day
  NOAEL: < 0.75 mg/kg/day

## OCC(CO)n1cnc(-c2ccc(F)cc2)c1-c1ccnc(Oc2ccccc2)n1
primate; [44]
  LOAEL: > 2000 mg/kg/day
  NEL: 10 mg/kg/day
  NOAEL: ≥ 2000 mg/kg/day
primate; systemic / clinical chemistry / calcium / calcium + systemic / in life observation / clinical signs / feces, discoloration + systemic / …
  LEL: 300 mg/kg/day
Mouse [18]
  LEL: 30 mg/kg/day
  LOAEL: > 300 mg/kg/day
  NEL: < 30 mg/kg/day
  NOAEL: ≥ 300 mg/kg/day
Rat [19]; [45]
  LOAEL: > 2000 mg/kg/day
  NEL: 3 mg/kg/day
  NOAEL: ≥ 2000 mg/kg/day
Rat [19]; systemic / in life observation / body weight / body weight gain
  LEL: 30 mg/kg/day
